The target in test [1] is T1, human CB1 receptor (Homo sapiens, UniProt P21554).
T1 construct: host or cells: CHO-K1 (Chinese hamster ovary) cells, membrane preparation
Description: CB1 radioligand competitive binding assay ([3H]CP 55,940 displacement). The note with it: for IC50: membranes of CHO-K1 cells expressing human CB1 receptor, 0.8 nM [3H]CP 55,940.

Test [2] deals with T2, human CB2 receptor (Homo sapiens, UniProt P34972).
T2 construct: host or cells: CHO-K1 (Chinese hamster ovary) cells, membrane preparation
The test is described as follows: CB2 radioligand competitive binding assay ([3H]CP 55,940 displacement). Particulars: for Selectivity CB2 (fold difference in selectivity between CB1 and CB2 binding): given in the column of the receptor with the higher binding affinity, 1.00 in both = about the same affinity; for IC50: membranes of CHO-K1 cells expressing human CB2 receptor, 0.6 nM [3H]CP55,940. The procedure:
The membranes were prepared from CHO-K1 (Chinese hamster ovary) cells stably transfected with the human CB2 receptor (Cat. #ES-111-C; Perkin Elmer, Boston, MA). The cells were grown adherently and maintained in Ham's F12 medium containing 10% fetal bovine serum (FBS), penicillin, streptomycin and geneticin (G418) at 37° C. in a humid atmosphere of 5% CO2 following the manufacturer's instructions.
For membrane preparation the cells were washed with PBS and scraped off the plates in cold homogenization buffer (25 mM HEPES (pH 7.4), 2 mM EDTA) containing protease inhibitor cocktail (Sigma Cat. #P8340). The cell suspension was homogenized with a Pro-PK-01200D Polytron Homogenizer (Pro Scientific) and then centrifuged for 30 min at 120,000×g. The supernatant was discarded and the pellet was re-suspended in the homogenization buffer and stored at −80° C. until the time of use.
In this experiment, 3H radiolabeled CP 55,940, i.e. [3H]CP 55,940 (Perkin Elmer, Boston, MA), was used as a radioligand for the CB2 receptor to determine the binding affinity of compounds for the CB2 receptor (Scheme 4; above).
The competition binding experiments (single dose and dose-response) were performed by incubating 0.6 nM of [3H]CP55,940 (specific activity 101 Ci/mmol, Perkin Elmer) and different concentrations of compounds disclosed herein with membranes prepared as above from CHO-K1 cells expressing human CB2 receptor (1 μg of protein/well), 50 mM Tris-HCl (pH 7.4), 5 mM MgCl2, 1 mM CaCl2, and 2 mg/mL BSA.
For the single dose experiments, the compound stocks (usually 10 mM in DMSO) were diluted to working stocks in the binding buffer to give the final compound concentrations of 10 μM and 1 μM. For the dose-response experiments the test compounds were sequentially diluted to provide the desired concentration range for the IC50 determination. In each case the compounds were pre-incubated with the membrane for 20 min, before adding the radioligand.
After incubation with the radioligand for 60 min at 37° C., the incubation was terminated by rapid filtration of assay mixture through MultiScreen®HTS^+ 96-well filter plates (Millipore, Cat. #MSFCNXB), pre-soaked for 60 min with 50 mM Tris-HCl (pH 7.4) containing 0.33% polyethylenimine (PEI). The nonspecific binding (NSB) was determined in the presence of 10 μM unlabelled CP55,940. After drying the filter plate at 50° C. for at least 60 min, the filter-bound radioactivity was determined by scintillation spectrometry using the 1450 MicroBeta Plate Counter (Perkin Elmer, Boston, MA). From the dose-response experiments, the IC50 values were determined (see Table 1, CB2 IC50).

Test [3] deals with T1, human CB1 receptor. The test is described as follows: PathHunter β-Arrestin functional assay, CB1 receptor, agonist mode. The note with it: PathHunter CHO-K1 CNR1 β-Arrestin cells, normalized to CP55,940. The format is cell-based.
Test [4] concerns the target T1, human CB1 receptor. The test is described as follows: PathHunter β-Arrestin functional assay, CB1 receptor, antagonist mode. The format is cell-based. Particulars: range stated for the group of compounds, read-out: IC50 towards human CB1 receptor in antagonist mode.

A value given as a limit tells only on which side of the number the result lay.

T2 sequence (P34972 whole entry): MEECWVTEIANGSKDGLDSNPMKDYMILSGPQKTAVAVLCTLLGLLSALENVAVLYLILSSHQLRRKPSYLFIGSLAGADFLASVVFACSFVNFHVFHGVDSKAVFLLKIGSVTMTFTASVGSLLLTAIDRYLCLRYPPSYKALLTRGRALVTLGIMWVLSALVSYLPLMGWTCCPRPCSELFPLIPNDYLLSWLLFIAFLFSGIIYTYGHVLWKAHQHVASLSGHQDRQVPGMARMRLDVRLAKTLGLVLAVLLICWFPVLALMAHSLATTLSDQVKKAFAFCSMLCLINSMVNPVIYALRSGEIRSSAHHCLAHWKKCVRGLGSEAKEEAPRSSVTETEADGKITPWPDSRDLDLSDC
T1 sequence (P21554 whole entry): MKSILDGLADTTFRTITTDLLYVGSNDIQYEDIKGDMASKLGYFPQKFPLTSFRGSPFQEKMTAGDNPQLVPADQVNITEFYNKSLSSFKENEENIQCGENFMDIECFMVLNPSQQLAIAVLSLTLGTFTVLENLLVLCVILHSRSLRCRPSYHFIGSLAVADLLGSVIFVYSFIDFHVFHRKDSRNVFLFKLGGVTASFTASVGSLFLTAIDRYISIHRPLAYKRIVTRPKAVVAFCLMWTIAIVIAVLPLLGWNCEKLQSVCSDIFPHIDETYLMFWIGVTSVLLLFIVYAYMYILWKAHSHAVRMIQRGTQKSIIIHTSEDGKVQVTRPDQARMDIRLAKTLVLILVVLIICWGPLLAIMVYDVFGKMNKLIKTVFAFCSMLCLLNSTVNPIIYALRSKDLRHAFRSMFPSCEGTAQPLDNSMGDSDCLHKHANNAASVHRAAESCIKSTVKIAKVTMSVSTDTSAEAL

Turning to `CCCCCc1cc(OP(=O)(OCC)c2ccccc2)c(-c2cccc(C)c2)c(OP(=O)(OCC)c2ccccc2)c1` (stereo not drawn) [34′a, diethyl (3′-methyl-4-pentyl-[1,1′-biphenyl]-2,6-diyl) bis(phenylphosphonate)], in test [1], the IC50 (commonly the concentration needed to halve the response being measured) lay in the range of 1000 to 4990 nM. Also, in test [2], the “Selectivity CB2 (fold difference in selectivity between CB1 and CB2 binding)” value is reported as 1.95 fold; the concentration for half-maximal inhibition (IC50) lay in the range of 1000 to 4990 nM.
Take `CCCCCc1cc(O)c(C2C=C(C)CCC2)c(OP(=O)(Cc2ccccc2)OC)c1` (stereo not drawn) [Example 4c, 6-hydroxy-5′-methyl-4-pentyl-1′,2′,3′,4′-tetrahydro-[1,1′-biphenyl]-2-yl methyl benzylphosphonate]: in test [1], the IC50 fell in the range of 1000 to 4990 nM. Also, in test [2], the “Selectivity CB2 (fold difference in selectivity between CB1 and CB2 binding)” value is given as 1.54 fold; the IC50 was 1000 to 4990 nM.
In the case of `C=C(C)C1CCC(C)=CC1c1c(O)cc(CCCCC)cc1OP(=O)(Cc1ccccc1)OC` (stereo not drawn) [Example 4d, 6-hydroxy-5′-methyl-4-pentyl-2′-(prop-1-en-2-yl)-1′,2′,3′,4′-tetrahydro-[1,1′-biphenyl]-2-yl methyl benzylphosphonate], in test [1] (given in the column of the receptor with the higher binding affinity, 1.00 in both = about the same affinity), the “Selectivity CB1 (fold difference in selectivity between CB1 and CB2 binding)” value amounted to 1.00 fold. The results for the IC50 in test [1], in test [2] and in test [4] were under 500 nM, under 500 nM and 780 to 3000 nM, respectively. The “Selectivity CB2 (fold difference in selectivity between CB1 and CB2 binding)” value in test [2] was found to be 1.00 fold. The “activity towards the human CB1 receptor in agonist mode” value in test [3] was “minimal to no activity”.
`CCCCCc1cc(O)c(-c2cccc(C)c2)c(OP(=O)(OCC)c2ccccc2)c1` (stereo not drawn) [Example 34a, ethyl (6-hydroxy-3′-methyl-4-pentyl-[1,1′-biphenyl]-2-yl) phenylphosphonate] came in with an IC50 in test [1] of 1000 to 4990 nM. In test [2], the “Selectivity CB2 (fold difference in selectivity between CB1 and CB2 binding)” value worked out at 10.26 fold; the half-maximal inhibitory concentration (IC50) is under 500 nM.
On the same counts, the results for `CCCCCc1cc(O)c(C2C=C(C)CCC2)c(OP(=O)(OCC)c2ccccc2)c1` (stereo not drawn) [Example 34c, ethyl (6-hydroxy-5′-methyl-4-pentyl-1′,2′,3′,4′-tetrahydro-[1,1′-biphenyl]-2-yl) phenylphosphonate] are 1000 to 4990 nM, 1.69 fold and 1000 to 4990 nM.
Compound `CCCCCc1cc(O)c(-c2cccc(C)c2)c(OP(=O)(Cc2ccccc2)OCC)c1` (stereo not drawn) [Example 35a, ethyl (6-hydroxy-3′-methyl-4-pentyl-[1,1′-biphenyl]-2-yl) benzylphosphonate] yielded an IC50 in test [2] of 1000 to 4990 nM.
With `CCCCCc1cc(O)c(C2C=C(C)CCC2)c(OP(=O)(Cc2ccccc2)OCC)c1` (stereo not drawn) [Example 35c, ethyl (6-hydroxy-5′-methyl-4-pentyl-1′,2′,3′,4′-tetrahydro-[1,1′-biphenyl]-2-yl) benzylphosphonate], the half-maximal inhibitory concentration (IC50) in test [1] was at least 5000 nM; in test [2] it was 1000 to 4990 nM. In addition, in test [2], the “Selectivity CB2 (fold difference in selectivity between CB1 and CB2 binding)” value is recorded as 3.25 fold.
`CCCCCCC(C)(C)c1cc(O)c(C2C=C(C)CCC2)c(OP(=O)(OC)c2ccccc2)c1` (stereo not drawn) [Example 37c, 6-hydroxy-5′-methyl-4-(2-methyloctan-2-yl)-1′,2′,3′,4′-tetrahydro-[1,1′-biphenyl]-2-yl methyl phenylphosphonate]: in test [3], the “activity towards the human CB1 receptor in agonist mode” value was “minimal to no activity”. In addition, the concentration for half-maximal inhibition (IC50) in test [4] lay in the range of 780 to 3000 nM.
For the compound `C=C(C)C1CCC(C)=CC1c1c(O)cc(C(C)(C)CCCCCC)cc1OP(=O)(OC)c1ccccc1` (stereo not drawn) [Example 37d, 6-hydroxy-5′-methyl-4-(2-methyloctan-2-yl)-2′-(prop-1-en-2-yl)-1′,2′,3′,4′-tetrahydro-[1,1′-biphenyl]-2-yl methyl phenylphosphonate], the IC50 is 500 to 990 nM in test [1], under 500 nM in test [2] and 780 to 3000 nM in test [4]. Further, in test [2], the “Selectivity CB2 (fold difference in selectivity between CB1 and CB2 binding)” value came to 2.02 fold. Besides, the “activity towards the human CB1 receptor in agonist mode” value in test [3] is reported as “minimal to no activity”.
As for `CCCCCCC(C)(C)c1cc(O)c(C2C=C(C)CCC2)c(OP(=O)(Cc2ccccc2)OC)c1` (stereo not drawn) [Example 38c, 6-hydroxy-5′-methyl-4-(2-methyloctan-2-yl)-1′,2′,3′,4′-tetrahydro-[1,1′-biphenyl]-2-yl methyl benzylphosphonate], the IC50 in test [1] fell in the range of 1000 to 4990 nM; in test [2] it was 500 to 990 nM; in test [4], 780 to 3000 nM. In addition, in test [2], the “Selectivity CB2 (fold difference in selectivity between CB1 and CB2 binding)” value is 4.96 fold. Moreover, the “activity towards the human CB1 receptor in agonist mode” value in test [3] was “minimal to no activity”.
`C=C(C)C1CCC(C)=CC1c1c(O)cc(C(C)(C)CCCCCC)cc1OP(=O)(Cc1ccccc1)OC` (stereo not drawn) [Example 38d, 6-hydroxy-5′-methyl-4-(2-methyloctan-2-yl)-2′-(prop-1-en-2-yl)-1′,2′,3′,4′-tetrahydro-[1,1′-biphenyl]-2-yl methyl benzylphosphonate]: the half-inhibitory concentration (IC50) in test [1] is 500 to 990 nM; in test [2] it was under 500 nM; in test [4] it was 780 to 3000 nM. Moreover, the “Selectivity CB2 (fold difference in selectivity between CB1 and CB2 binding)” value in test [2] turned out to be 1.82 fold. Besides, the “activity towards the human CB1 receptor in agonist mode” value in test [3] is given as “minimal to no activity”.
With `C=C(C)C1CCC(C)=CC1c1c(O)cc(C(C)(C)CCCCCC)cc1OP(=O)(Cc1ccccc1)OCC` (stereo not drawn) [Example 39d, ethyl (6-hydroxy-5′-methyl-4-(2-methyloctan-2-yl)-2′-(prop-1-en-2-yl)-1′,2′,3′,4′-tetrahydro-[1,1′-biphenyl]-2-yl) benzylphosphonate], the IC50 in test [1] and in test [2] was 500 to 990 nM in each case. The “Selectivity CB2 (fold difference in selectivity between CB1 and CB2 binding)” value in test [2] is recorded as 1.10 fold.

The values above are taken from patent US12252503B2, “Cannabinoid derivatives” (priority 2019, dated 2025).
